Key:
Assay in all cases: Cysteine reactivity ABPP
Type in all cases: binding
[1] = target: T1, CBLB E3 ubiquitin-protein ligase CBL-B C686 (Q13191) (Homo sapiens, UniProt Q13191)
T1 construct: endogenous in cells; host or cells: primary human T cells
Method: (§1) Activated or expanded primary human T cells were re-suspended in RPMI (1×10^6 cells/mL) containing 10% fetal bovine serum (FBS), penicillin (100 U/mL), streptomycin ([…]), and L-glutamine (2 mM). The cells were treated with DMSO or compounds for 3 h, pelleted (524 g, 5 min), washed with PBS, and lysed by sonication (2×8 pulses). Soluble and particulate proteomic fractions were separated by ultracentrifugation (100,000 g, 45 min), and protein concentration was normalized to 1.7 mg/mL using a standard DC protein assay (Bio-Rad). The resulting proteomes were analyzed by competitive isotopic Tandem Orthogonal Proteolysis Activity-Based Protein Profiling (isoTOP-ABPP).
(§2) The heavy/light isoTOP-ABPP ratios (R values) for each unique peptide (DMSO/compound treated) were quantified with in-house CIMAGE software (Weerapana et al., 2010) using default parameters (3 MS1 acquisitions per peak and signal to noise threshold set to 2.5). Site-specific engagement of cysteine residues was assessed by blockade of IA-alkyne probe labeling. […] Ratios for unique peptide sequences were calculated for each experiment; overlapping peptides with the same modified cysteine (e.g., different charge states, elution times or tryptic termini) were grouped together and the median ratio was reported as the final ratio (R). Additionally, ratios for peptide sequences containing multiple cysteines were grouped together. When aggregating data across experimental replicates, the mean of each experimental median R was reported. The peptide ratios reported by CIMAGE were further filtered to ensure the removal or correction of low-quality ratios in each individual dataset. The quality filters applied were the following: removal of half-tryptic peptides, removal of peptides with more than one tryptic miscleaved, removal of peptides with R=20 and only a single MS2 event triggered during the elution of the parent ion, removal of non-unique peptides. Further filtering was then performed as described below for each experiment type.
(§3) Samples (500 μL, 1.7 mg/mL) were treated with iodoacetamide desthiobiotin (IA-DTB, 5 μL of 10 mM stock in DMSO, final concentration: 100 μM) for 1 h at ambient temperature. Ice-cold MeOH (500 μL) and CHCl3 (200 μL) were then added, the mixture was vortexed and centrifuged (10,000 g, 10 min, 4° C.) to afford a protein disc at the interface of CHCl3 and aqueous layers. Both layers were aspirated without perturbing the disk, which was re-suspended in cold methanol (500 μL) and CHCl3 (200 μL) by sonication. The proteins were pelleted (10,000 g, 10 min, 4° C.), and the resulting pellets were re-suspended in a buffer (90 μL) containing 9M urea, 10 mM DTT and 50 mM triethylammonium bicarbonate ( 1/20 dilution of 1.0 M stock solution, pH 8.5) by thorough pipetting up and down. The resulting mixture was heated at 65° C. for 20 min. Sample was cooled to room temp, iodoacetamide (10 μL, 500 mM solution in H2O) was added, and the samples were incubated at 37° C. for 30 min with shaking.
(§4) At individual TMT experiment level, the following filters were applied to remove low-quality peptides: removal of non-unique peptides; removal of half-tryptic peptides; removal of peptides with more than one internal miscleaved site; removal of peptides with low (<10,000) sum of reporter ion intensities for control channels, and peptides with high variation between the replicate control channels (coefficient of variance >0.5). R values (compound-treated vs. DMSO-treated) for each peptide entry were calculated using the reporter ion intensities of DMSO and compound treated TMT channels for each treatment group with a maximum ratio cap of 20. […]

[2] = target: T2, JAK1 Tyrosine-protein kinase JAK1 C810, C817 (P23458) (Homo sapiens, UniProt P23458)
T2 construct: endogenous in cells; host or cells: primary human T cells
Method: as §1, §2, §3, §4

[3] = target: T3, MAPK9 Mitogen-activated protein kinase 9 C177 (P45984) (Homo sapiens, UniProt P45984); details: 100
T3 construct: endogenous in cells; host or cells: primary human T cells
Method: as §1, §2, §3, §4

[4] = target: T4, PFKFB3 6-phosphofructo-2-kinase/fructose-2,6-bisphosphatase 3 C440 (Q16875) (Homo sapiens, UniProt Q16875); details: 100
T4 construct: endogenous in cells; host or cells: primary human T cells
Method: as §1, §2, §3, §4

[5] = target: T5, PTPN11 Tyrosine-protein phosphatase non-receptor type 11 C259 (Q06124) (Homo sapiens, UniProt Q06124)
T5 construct: endogenous in cells; host or cells: primary human T cells
T5 sequence (Q06124 1-593): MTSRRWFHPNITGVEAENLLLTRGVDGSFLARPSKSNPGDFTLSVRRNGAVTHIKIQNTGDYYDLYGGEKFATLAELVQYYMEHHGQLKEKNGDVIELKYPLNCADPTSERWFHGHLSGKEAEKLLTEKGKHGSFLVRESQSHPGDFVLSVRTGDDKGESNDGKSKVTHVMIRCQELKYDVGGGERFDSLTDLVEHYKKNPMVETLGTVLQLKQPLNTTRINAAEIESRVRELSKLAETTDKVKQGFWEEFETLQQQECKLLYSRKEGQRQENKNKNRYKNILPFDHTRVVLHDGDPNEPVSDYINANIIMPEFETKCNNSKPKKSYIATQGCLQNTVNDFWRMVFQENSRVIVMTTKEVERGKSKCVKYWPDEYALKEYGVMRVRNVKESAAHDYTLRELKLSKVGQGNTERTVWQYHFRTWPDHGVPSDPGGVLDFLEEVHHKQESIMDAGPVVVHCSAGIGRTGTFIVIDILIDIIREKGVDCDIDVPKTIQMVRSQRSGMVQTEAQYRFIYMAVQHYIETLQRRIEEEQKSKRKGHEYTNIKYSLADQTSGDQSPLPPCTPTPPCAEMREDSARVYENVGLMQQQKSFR
Method: as §1, §2, §3, §4

[6] = target: T6, STAT3 Signal transducer and activator of transcription 3 C259 (P40763) (Homo sapiens, UniProt P40763)
T6 construct: endogenous in cells; host or cells: primary human T cells
Method: as §1, §2, §3, §4

[7] = target: T7, STAT3 Signal transducer and activator of transcription 3 C712, C718 (P40763) (Homo sapiens, UniProt P40763)
T7 construct: endogenous in cells; host or cells: primary human T cells
Method: as §1, §2, §3, §4

T1 sequence (Q13191 whole entry): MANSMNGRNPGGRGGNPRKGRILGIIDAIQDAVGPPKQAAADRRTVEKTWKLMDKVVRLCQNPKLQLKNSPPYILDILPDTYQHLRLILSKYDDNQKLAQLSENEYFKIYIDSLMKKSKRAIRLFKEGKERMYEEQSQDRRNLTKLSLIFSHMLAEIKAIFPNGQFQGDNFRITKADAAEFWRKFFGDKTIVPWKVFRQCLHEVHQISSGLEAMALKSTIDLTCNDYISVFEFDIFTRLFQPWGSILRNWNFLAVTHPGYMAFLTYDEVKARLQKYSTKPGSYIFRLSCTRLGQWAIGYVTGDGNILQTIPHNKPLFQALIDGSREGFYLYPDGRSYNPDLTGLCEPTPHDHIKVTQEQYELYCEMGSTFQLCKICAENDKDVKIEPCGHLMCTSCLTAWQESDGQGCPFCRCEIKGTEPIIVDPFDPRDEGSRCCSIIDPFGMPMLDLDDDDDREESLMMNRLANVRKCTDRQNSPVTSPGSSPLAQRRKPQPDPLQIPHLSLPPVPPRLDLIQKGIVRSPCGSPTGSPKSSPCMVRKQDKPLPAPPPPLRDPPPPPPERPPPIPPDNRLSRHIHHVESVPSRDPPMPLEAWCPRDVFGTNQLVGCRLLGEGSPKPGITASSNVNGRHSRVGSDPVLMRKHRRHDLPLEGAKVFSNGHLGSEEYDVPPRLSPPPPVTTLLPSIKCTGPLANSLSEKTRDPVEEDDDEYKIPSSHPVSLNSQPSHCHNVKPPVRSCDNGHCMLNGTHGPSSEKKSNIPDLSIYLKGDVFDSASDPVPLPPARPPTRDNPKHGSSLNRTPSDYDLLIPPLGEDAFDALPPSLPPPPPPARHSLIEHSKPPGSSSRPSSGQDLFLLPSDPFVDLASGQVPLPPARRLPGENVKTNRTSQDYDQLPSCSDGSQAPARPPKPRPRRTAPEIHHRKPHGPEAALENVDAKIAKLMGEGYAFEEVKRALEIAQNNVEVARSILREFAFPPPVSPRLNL
T2 sequence (P23458 whole entry): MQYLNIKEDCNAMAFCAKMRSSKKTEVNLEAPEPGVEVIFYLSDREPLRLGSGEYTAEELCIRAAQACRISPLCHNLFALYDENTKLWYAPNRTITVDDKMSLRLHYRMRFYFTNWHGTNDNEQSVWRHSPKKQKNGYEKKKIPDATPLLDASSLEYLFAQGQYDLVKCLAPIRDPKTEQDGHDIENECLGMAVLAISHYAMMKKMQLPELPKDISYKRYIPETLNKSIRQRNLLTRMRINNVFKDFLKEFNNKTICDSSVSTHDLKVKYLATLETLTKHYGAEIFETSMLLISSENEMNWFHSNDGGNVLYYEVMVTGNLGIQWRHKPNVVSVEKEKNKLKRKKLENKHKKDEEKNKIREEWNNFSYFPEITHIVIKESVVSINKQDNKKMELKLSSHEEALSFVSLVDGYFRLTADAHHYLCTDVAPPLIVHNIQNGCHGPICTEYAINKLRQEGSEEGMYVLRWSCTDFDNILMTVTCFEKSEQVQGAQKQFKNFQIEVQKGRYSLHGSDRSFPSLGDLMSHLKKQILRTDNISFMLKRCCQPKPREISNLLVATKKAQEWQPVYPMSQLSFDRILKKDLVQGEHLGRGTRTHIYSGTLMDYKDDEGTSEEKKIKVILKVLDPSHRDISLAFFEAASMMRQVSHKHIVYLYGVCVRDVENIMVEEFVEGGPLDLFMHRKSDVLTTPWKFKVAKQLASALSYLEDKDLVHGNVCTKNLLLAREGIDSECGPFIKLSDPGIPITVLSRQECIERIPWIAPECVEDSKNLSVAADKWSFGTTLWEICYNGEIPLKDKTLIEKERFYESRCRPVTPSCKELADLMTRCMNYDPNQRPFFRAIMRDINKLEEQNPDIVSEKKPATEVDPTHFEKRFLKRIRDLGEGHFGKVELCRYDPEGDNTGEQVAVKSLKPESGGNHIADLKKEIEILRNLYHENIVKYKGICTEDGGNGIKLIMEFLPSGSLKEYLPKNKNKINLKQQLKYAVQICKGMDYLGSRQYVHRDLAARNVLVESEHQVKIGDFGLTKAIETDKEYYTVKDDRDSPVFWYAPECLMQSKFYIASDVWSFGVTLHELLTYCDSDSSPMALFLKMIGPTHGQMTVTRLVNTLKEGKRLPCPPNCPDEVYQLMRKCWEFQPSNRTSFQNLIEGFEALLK
T7 sequence (P40763 whole entry, one chain of several): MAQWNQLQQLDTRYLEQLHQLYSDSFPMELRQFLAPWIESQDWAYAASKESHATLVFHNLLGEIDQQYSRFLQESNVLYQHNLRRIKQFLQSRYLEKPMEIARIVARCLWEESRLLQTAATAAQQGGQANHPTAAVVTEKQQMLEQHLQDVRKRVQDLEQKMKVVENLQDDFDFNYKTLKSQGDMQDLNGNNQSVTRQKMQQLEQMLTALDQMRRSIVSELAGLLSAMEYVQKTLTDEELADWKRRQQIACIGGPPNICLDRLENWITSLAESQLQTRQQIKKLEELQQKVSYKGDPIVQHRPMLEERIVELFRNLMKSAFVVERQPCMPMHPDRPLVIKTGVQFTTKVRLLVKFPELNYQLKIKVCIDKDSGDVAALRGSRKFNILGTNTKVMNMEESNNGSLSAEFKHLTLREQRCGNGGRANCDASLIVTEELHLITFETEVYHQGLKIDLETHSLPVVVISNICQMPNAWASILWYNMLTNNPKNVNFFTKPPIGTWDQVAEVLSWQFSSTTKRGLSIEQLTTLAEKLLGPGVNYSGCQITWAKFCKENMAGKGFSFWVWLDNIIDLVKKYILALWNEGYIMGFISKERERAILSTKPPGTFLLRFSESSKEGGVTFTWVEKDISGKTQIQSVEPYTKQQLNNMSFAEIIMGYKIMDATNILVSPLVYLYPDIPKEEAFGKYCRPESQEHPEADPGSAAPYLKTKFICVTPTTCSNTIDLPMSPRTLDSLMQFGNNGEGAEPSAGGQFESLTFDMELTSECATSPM
T6 sequence (P40763 whole entry, one chain of several): as above
T4 sequence (Q16875 whole entry, one chain of several): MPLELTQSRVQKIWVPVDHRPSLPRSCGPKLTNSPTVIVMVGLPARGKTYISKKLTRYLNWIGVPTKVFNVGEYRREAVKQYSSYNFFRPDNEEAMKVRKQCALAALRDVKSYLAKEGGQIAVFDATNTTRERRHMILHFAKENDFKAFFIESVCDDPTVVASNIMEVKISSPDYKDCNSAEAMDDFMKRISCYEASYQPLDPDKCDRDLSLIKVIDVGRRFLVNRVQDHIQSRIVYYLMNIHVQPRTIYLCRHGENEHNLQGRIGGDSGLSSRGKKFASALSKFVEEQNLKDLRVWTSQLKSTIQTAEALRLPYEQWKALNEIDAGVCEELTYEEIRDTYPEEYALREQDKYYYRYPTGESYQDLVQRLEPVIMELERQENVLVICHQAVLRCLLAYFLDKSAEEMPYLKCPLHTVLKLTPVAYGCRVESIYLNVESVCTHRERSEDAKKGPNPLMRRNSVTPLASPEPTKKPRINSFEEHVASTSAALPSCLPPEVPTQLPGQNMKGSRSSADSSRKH
T3 sequence (P45984 whole entry): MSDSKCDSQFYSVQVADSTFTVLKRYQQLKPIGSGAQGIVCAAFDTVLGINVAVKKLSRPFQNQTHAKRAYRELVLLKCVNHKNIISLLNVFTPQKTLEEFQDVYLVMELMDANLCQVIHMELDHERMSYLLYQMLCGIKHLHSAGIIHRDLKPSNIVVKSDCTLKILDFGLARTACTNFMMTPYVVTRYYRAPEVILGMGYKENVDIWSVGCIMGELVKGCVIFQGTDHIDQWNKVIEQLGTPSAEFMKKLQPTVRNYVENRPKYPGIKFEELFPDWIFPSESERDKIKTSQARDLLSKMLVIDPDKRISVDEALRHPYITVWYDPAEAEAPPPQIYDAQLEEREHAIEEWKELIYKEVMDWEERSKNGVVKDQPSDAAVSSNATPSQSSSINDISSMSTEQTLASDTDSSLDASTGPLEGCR

Row | Cysteine reactivity proteomic data ([1]; 100 μM) | Cysteine reactivity proteomic data ([1]; 500 μM) | Cysteine reactivity proteomic data ([2]; 100 μM) | Cysteine reactivity proteomic data ([2]; 500 μM) | Cysteine reactivity proteomic data [3] | Cysteine reactivity proteomic data [4] | Cysteine reactivity proteomic data ([5]; 100 μM) | Cysteine reactivity proteomic data ([5]; 500 μM) | Cysteine reactivity proteomic data ([6]; 100 μM) | Cysteine reactivity proteomic data ([6]; 500 μM) | Cysteine reactivity proteomic data ([7]; 100 μM) | Cysteine reactivity proteomic data ([7]; 500 μM) | Compound
1 | 25.6002 | 76.6489 | 18.7286 | 90.3525 | 72.19 | 62.11 | 16.62 | 84.5074 | 42.3797 | 73.3713 | 64.9054 | 69.5373 | O=C(CCl)N1CCN(S(=O)(=O)c2ccc(-c3ccncc3)cc2)CC1 [Compound B9]
2 | – | 2.418 | – | 39.2015 | – | – | – | 28.7525 | – | 13.6326 | – | 12.6621 | C=CC(=O)N(Cc1cccc(Cl)c1Cl)c1ccc(Oc2ccccc2)c(C(F)(F)F)c1 [Compound K4]

From patent US20240123078A1, “COMPOUNDS AND METHODS FOR MODULATING IMMUNE-RELATED PROTEINS” (Vividion Therapeutics, Inc., priority 2019, published 2024)
